{"source": "patent US20130298921A1", "about": "“INHALER FOR SMOKING CESSATION” (Rock Creek Pharmaceuticals, Inc., priority 2011, published 2013)", "key": {"[1]": {"molecular_target": "T1, α7 nAChR channel (Homo sapiens, UniProt P36544)", "T1 construct": "expressed in transfected cells", "T1 sequence (P36544 23-502)": "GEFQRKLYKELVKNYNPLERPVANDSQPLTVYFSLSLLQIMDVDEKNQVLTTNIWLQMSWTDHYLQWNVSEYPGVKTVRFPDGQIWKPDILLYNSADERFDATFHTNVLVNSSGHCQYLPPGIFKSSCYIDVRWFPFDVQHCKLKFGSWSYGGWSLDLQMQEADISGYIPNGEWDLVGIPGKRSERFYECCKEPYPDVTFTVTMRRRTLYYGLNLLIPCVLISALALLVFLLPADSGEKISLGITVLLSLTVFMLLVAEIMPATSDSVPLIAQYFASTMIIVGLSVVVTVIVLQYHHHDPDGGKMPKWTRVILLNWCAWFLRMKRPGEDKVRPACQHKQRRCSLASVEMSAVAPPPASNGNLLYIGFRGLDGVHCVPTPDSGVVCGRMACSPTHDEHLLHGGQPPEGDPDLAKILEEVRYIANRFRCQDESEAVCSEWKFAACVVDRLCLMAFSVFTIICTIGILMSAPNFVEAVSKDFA", "test": "Fluo-8 calcium FLIPR assay, cloned nAChR channels in mammalian cells", "type": "cell-based", "settings": "for agonist character / maximum level of activation: agonist assay"}, "[2]": {"molecular_target": "T2, α3/β4 nAChR channel (Homo sapiens, UniProt P30926+P32297)", "T2 construct": "expressed in transfected cells", "T2 sequence (P32297 32-505)": "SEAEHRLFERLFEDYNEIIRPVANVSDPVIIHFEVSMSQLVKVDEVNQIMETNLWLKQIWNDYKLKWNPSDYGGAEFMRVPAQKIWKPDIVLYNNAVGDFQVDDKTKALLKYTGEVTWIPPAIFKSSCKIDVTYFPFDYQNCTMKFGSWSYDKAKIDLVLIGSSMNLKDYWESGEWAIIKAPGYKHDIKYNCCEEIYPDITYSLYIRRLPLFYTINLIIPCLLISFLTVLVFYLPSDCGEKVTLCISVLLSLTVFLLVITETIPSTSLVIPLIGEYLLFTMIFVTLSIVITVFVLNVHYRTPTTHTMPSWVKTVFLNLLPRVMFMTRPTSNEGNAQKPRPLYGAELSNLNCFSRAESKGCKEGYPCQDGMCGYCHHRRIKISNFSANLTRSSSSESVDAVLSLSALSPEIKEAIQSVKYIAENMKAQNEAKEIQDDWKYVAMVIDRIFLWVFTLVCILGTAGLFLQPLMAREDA", "T2 sequence (P30926 22-498)": "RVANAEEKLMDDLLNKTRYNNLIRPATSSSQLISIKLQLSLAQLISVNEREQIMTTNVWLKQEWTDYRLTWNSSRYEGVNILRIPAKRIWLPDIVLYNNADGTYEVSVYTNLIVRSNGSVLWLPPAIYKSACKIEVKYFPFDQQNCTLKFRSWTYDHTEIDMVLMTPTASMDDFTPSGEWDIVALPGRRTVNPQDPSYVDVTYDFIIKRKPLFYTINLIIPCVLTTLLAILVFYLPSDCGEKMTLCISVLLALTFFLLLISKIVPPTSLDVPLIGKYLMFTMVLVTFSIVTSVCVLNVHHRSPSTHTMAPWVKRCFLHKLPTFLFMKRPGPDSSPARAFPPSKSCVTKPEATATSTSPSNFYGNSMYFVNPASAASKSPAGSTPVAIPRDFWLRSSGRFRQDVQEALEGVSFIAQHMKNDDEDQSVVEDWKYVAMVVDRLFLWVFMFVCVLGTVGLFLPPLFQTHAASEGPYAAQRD", "test": "Fluo-8 calcium FLIPR assay, cloned nAChR channels in mammalian cells", "type": "cell-based"}, "[3]": {"system": "Frontal cortex (rat frontal homogenates)", "test": "binding relative to nicotine in rat frontal homogenates", "settings": "reference set to 1.0", "description": "(§1) This example describes a study conducted on anatabine along with other common nicotinic alkaloids in rat frontal and hippocampal homogenates."}, "[4]": {"system": "nicotine self-administration in rhesus monkeys", "test": "nicotine self-administration in nonhuman primate model (second-order schedule, nicotine- and food-maintained responding)", "type": "in vivo, rhesus monkeys (Macaca Mulatta)", "settings": "for food-maintained responding (change with increasing anatabine doses): anatabine 0.18-3.2 mg/kg IM; for nicotine self-administration: single doses of anatabine 0.18-3.2 mg/kg IM, nicotine training dose 0.01 mg/kg/inj (base)", "description": "Food was available during three 1-hour sessions each day (7 AM, 3 PM and 7 PM).\nFood pellets were limited to 25 per session or 100 per day.\nNicotine doses are expressed as the base."}, "[5]": {"system": "Hippocampus (rat hippocampal homogenates)", "test": "binding relative to nicotine in rat hippocampal homogenates", "settings": "reference set to 1.0", "description": "as §1"}, "[6]": {"system": "rodents trained to self-administer nicotine", "test": "reward in rodents trained to self-administer nicotine", "type": "in vivo"}, "[7]": {"molecular_target": "T3, α4/β2 nAChR channel (Homo sapiens, UniProt P17787+P43681)", "T3 construct": "expressed in transfected cells", "T3 sequence (P43681 29-627 limits assumed)": "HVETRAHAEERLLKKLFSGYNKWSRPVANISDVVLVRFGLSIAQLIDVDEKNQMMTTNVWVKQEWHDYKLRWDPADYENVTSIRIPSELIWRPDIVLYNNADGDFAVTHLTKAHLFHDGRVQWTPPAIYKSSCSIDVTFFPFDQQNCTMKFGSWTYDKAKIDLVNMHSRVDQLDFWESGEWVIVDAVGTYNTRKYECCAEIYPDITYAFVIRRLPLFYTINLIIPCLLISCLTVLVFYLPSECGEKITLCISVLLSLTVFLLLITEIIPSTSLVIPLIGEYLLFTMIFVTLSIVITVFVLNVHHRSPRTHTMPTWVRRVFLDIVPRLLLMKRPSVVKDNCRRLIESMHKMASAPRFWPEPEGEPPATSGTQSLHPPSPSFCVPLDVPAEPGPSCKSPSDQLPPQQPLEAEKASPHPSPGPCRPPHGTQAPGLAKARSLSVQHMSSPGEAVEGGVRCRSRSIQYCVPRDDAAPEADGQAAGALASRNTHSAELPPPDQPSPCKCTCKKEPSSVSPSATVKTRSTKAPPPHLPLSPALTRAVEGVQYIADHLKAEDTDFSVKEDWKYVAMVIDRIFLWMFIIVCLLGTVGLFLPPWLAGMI", "T3 sequence (P17787 26-502)": "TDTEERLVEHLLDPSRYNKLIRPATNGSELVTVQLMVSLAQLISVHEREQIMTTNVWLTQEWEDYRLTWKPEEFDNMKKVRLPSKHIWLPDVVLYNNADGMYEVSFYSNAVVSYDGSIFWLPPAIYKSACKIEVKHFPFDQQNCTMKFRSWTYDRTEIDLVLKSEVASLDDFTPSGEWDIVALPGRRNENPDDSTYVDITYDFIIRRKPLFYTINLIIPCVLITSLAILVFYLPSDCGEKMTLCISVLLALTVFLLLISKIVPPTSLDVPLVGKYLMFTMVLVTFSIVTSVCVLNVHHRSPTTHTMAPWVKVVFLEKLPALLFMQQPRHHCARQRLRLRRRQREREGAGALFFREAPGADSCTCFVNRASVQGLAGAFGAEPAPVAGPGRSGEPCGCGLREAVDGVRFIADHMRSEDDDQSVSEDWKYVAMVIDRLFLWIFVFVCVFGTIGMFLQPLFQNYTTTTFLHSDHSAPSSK", "test": "Fluo-8 calcium FLIPR assay, cloned nAChR channels in mammalian cells", "type": "cell-based"}, "[8]": {"system": "precipitated nicotine withdrawal", "test": "precipitated nicotine withdrawal", "type": "in vivo, rodents", "settings": "anatabine administration"}, "[9]": {"system": "nicotine self-administration by rats", "test": "nicotine self-administration by rats", "type": "in vivo", "settings": "anatabine 1.8 and 3.2 mg/kg IP; peak reinforcing nicotine doses 0.003 and 0.01 mg/kg/inj; P<0.05-0.001; FIG. 6"}, "[10]": {"system": "nicotine self-administration by rats", "settings": "anatabine 1.8-5.6 mg/kg, Caine et al., 2013, cited from earlier work"}, "[11]": {"settings": "antagonist and positive allosteric modulator modes"}}, "note": "Where two headings read alike, the source gives them in different places.", "data": [{"smiles": "CN1CCCC1c1cccnc1", "note": "(single isomer, unassigned) [Nicotine, nicotine, reference compound]", "values": [{"measurement": "agonist character", "setting": "[1]", "result": "full, potent agonists"}, {"measurement": "maximum level of activation", "setting": "[1]", "result": "also similar (and similar to ACh)"}, {"measurement": "agonist character", "setting": "[2]; agonist assay", "result": "full agonist"}, {"measurement": "maximal response of the channel compared with ACh", "setting": "[2]; agonist assay", "result": "approached that of ACh"}, {"measurement": "Nicotine Binding Constant", "setting": "[3]", "result": 1.0}, {"measurement": "food-maintained responding with increasing doses of nicotine", "setting": "[4]; nicotine 0.001-0.1 mg/kg/inj", "result": "did not change"}, {"measurement": "peak of the nicotine dose-effect curve", "setting": "[4]; nicotine 0.001-0.1 mg/kg/inj, 7 monkeys", "result": 0.0032, "unit": "mg/kg/inj"}, {"measurement": "Nicotine Binding Constant", "setting": "[5]", "result": 1.0}]}, {"smiles": "C1=CCC(c2cccnc2)NC1", "note": "(racemic) [Anatabine, anatabine]", "values": [{"measurement": "rewarding effect", "setting": "[6]", "result": "do not find anatabine to be rewarding"}, {"measurement": "agonist character", "setting": "[1]", "result": "full, potent agonists"}, {"measurement": "maximum level of activation", "setting": "[1]", "result": "also similar (and similar to ACh)"}, {"measurement": "antagonist or PAM effects", "setting": "[1]; [11]", "result": "no antagonist or PAM effects"}, {"measurement": "agonist character", "setting": "[7]; agonist assay", "result": "full agonist"}, {"measurement": "antagonist or PAM effects", "setting": "[7]; [11]", "result": "no antagonist or PAM effects"}, {"measurement": "reversal of precipitated nicotine withdrawal", "setting": "[8]", "result": "does not reverse precipitated nicotine withdrawal"}, {"measurement": "nicotine-maintained responding", "setting": "[9]", "result": "significantly reduced"}, {"measurement": "EC50", "setting": "[2]; agonist assay", "result": 14.6, "unit": "µM"}, {"measurement": "agonist character", "setting": "[2]; agonist assay", "result": "partial agonist"}, {"measurement": "antagonist or PAM effects", "setting": "[2]; [11]", "result": "no antagonist or PAM effects"}, {"measurement": "effect on nicotine dose-effect curve", "setting": "[10]", "result": "flattened the nicotine dose-effect curve"}, {"measurement": "nicotine-maintained responding", "setting": "[10]; nicotine 0.003 and 0.01 mg/kg/inj", "result": "significantly reduced"}, {"measurement": "effect on nicotine dose-effect curve", "setting": "[4]; anatabine 0.32 mg/kg, data for two monkeys", "result": "shifts the peak of the dose-effect curve to the right"}, {"measurement": "effect on nicotine dose-effect curve", "setting": "[4]; anatabine 1.0 mg/kg", "result": "flattened the dose-effect curve"}, {"measurement": "food-maintained responding (change with increasing anatabine doses)", "setting": "[4]", "result": "no significant effects"}, {"measurement": "food-maintained responding (change with increasing anatabine doses)", "setting": "[4]; listed as anatabine", "result": "not statistically significant"}, {"measurement": "decreases in nicotine-maintained responding versus baseline", "setting": "[4]; anatabine doses of 1.8 and 3.2 mg/kg IM, P<0.005-0.02", "result": "significantly different from baseline"}, {"measurement": "systematic behavioral assessments (sedation or agitation)", "setting": "[4]; following each treatment session", "result": "no evidence of sedation or agitation"}, {"measurement": "nicotine self-administration", "setting": "[4]", "result": "dose-dependently reduced"}, {"measurement": "nicotine self-administration", "setting": "[4]; listed as anatabine", "result": "dose-dependently decreased"}]}]}
